The values below come from PMC8830247 (Journal of medicinal chemistry, 2019).

The subject of series [1] is D3R. Particulars: cited from earlier work.
Series [2] deals with oxycodone self-administration. Particulars: cited from earlier work.
The test system of series [3] is rats. Particulars: pretreatment, rats chronically treated with oxycodone; cited from earlier work.
The conditions of series [4]: hot plate assay; cited from earlier work.
For series [5], the target named is Human Dopamine D3R (Homo sapiens, UniProt P35462). The series is described as follows: Stimulation or inhibition of quinpirole-stimulated mitogenesis in CHO cells. It is filed as cell-based. Particulars: mitogenesis assay.
The conditions of series [6]: rats, PO 10 mg/kg; adapted from previously reported data; cited from earlier work.
For series [7], the system named is dogs. Particulars: cited from earlier work.
Series [8] can be described thus: Pharmacokinetics in rats after oral administration, plasma and brain. The conditions noted are these: PO 10 mg/kg.
The target of series [9] is T1, 5-HT1A receptor (Homo sapiens, UniProt P08908).
T1 sequence (P08908 1-422): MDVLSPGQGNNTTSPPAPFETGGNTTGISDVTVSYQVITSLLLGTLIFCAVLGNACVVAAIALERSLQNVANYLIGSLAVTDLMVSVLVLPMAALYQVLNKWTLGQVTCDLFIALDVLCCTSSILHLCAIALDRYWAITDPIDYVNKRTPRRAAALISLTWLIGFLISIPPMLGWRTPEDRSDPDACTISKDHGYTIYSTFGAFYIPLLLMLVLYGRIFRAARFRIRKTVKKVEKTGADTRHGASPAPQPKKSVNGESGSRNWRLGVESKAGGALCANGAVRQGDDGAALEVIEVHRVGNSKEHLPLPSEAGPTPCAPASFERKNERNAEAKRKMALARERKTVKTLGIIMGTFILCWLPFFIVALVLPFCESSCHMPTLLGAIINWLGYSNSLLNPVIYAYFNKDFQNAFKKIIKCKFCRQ
Nature of the series: 5-HT1A [35S]GTPγS binding functional assay.

Sequence of Human Dopamine D3R (P35462 whole entry): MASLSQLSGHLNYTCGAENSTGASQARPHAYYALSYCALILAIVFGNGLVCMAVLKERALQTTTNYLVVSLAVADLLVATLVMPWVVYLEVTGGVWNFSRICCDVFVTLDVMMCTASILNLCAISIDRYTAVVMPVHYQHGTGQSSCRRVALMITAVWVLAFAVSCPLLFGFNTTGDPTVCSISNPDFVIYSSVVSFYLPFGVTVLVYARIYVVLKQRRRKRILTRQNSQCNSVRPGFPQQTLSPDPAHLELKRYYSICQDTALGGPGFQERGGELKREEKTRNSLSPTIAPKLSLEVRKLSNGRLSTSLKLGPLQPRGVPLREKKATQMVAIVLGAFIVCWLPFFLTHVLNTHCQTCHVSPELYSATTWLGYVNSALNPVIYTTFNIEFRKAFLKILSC

Take `O=C(NCC[C@@H](O)CN1CCN(c2cccc(Cl)c2Cl)CC1)c1cc2ccccc2[nH]1` [(R)-2]: the “D3R functional efficacy (in words)” value in [1] is “antagonist”.

Consider `CCc1cc(Cl)c(OC)c(N2CCN(CC(O)CCNC(=O)c3cc4ccccc4[nH]3)CC2)c1` (centres unmarked) [compound 4], for which, in series [2], the “acquisition and maintenance of oxycodone self-administration” value is given as “dose-dependently inhibited”; the “oxycodone extinction response and reinstatement of oxycodone-seeking” value was “inhibited oxycodone extinction response and reinstatement of oxycodone-seeking behaviors”. Besides, the “break-point for oxycodone self-administration” value in series [2] (progressive-ratio schedule of reinforcement) is “lowering the break-point”. Also, the “naloxone-precipitated conditioned place aversion” value in series [3] is “dose-dependently reduced”. The “effect on antinociceptive actions of oxycodone” value in series [4] was “no effect”.

With `CCc1cc(Cl)c(OC)c(N2CCN(C[C@@H](O)CCNC(=O)c3cc4ccccc4[nH]3)CC2)c1` [(S)-4, (S)-N-(4-(4-(3-Chloro-5-ethyl-2-methoxyphenyl)piperazin-1-yl)3-hydroxybutyl)-1H-indole-2-carboxamide], in series [5], the “D3R functional efficacy (in words)” value is recorded as “D3R antagonists”.

For `CCc1cccc(N2CCN(CC(O)CCNC(=O)c3cc4ccccc4[nH]3)CC2)c1Cl` (centres unmarked) [compound 5], the “D3R functional efficacy (in words)” value in series [1] was “relatively low efficacy partial agonist”.

On to `CCc1cccc(N2CCN(C[C@H](O)CCNC(=O)c3cc4ccccc4[nH]3)CC2)c1Cl` [(R)-5, (R)-N-(4-(4-(2-Chloro-3-ethylphenyl)piperazin-1-yl)-3-hydroxybutyl)-1H-indole-2-carboxamide], for which the “plasma exposure (AUC0-t)” value in series [6] was 1985 ± 278.6 pmol·h/mL.

For the compound `Cc1ncoc1-c1nnc(SCCCN2C[C@@H]3C[C@]3(c3ccc(C(F)(F)F)cc3F)C2)n1C` [compound 1], the “blood pressure effect when coadministered with cocaine” value in series [7] is “produced hypertension”.

Regarding `O=C(NCC[C@H](O)CN1CCN(c2cccc(Cl)c2Cl)CC1)c1cc2ccccc2[nH]1` [(S)-2], the “D3R functional efficacy (in words)” value in series [1] was “weak partial agonist”.

With `CCc1cccc(N2CCN(C[C@@H](O)CCNC(=O)c3cc4ccccc4[nH]3)CC2)c1Cl` [(S)-5, (S)-N-(4-(4-(2-Chloro-3-ethylphenyl)piperazin-1-yl)-3-hydroxybutyl)-1H-indole-2-carboxamide], the “brain Cmax” value in series [8] stood at 3666.7 ± 312.7 pmol/g.

Consider `CCc1cccc(N2CCN(CC(F)CCNC(=O)c3cc4ccccc4o3)CC2)c1Cl` (centres unmarked) [10b, N-(4-(4-(2-Chloro-3-ethylphenyl)piperazin-1-yl)-3-fluorobutyl)benzofuran-2-carboxamide], for which the “5-HT1A functional efficacy (in words)” value in series [9] was “low potency partial agonist”.

As to `CCc1cc(Cl)c(OC)c(N2CCN(C[C@H](O)CCNC(=O)c3cc4ccccc4[nH]3)CC2)c1` [(R)-4, (R)-N-(4-(4-(3-Chloro-5-ethyl-2-methoxyphenyl)piperazin-1-yl)3-hydroxybutyl)-1H-indole-2-carboxamide], the “D3R functional efficacy (in words)” value in [5] is “D3R antagonists”.
